From patent US4762850A, “Dopamine-beta-hydroxylase inhibitors” (SmithKline Beckman Corporation, priority 1987, dated 1988)
Where a name gives a salt, the structure may show the parent alone.

What was measured:
[1] = target: T1, dopamine-β-hydroxylase (DBH) (Bos taurus, UniProt P15101); test: in vitro DBH inhibition: conversion of tyramine to octopamine (standard procedure of Pisano et al.); assay type: biochemical; conditions: absorbance at 330 nm, read-out: DBH IC50 (molar concentration of compound at which DBH activity was halved)
T1 sequence (P15101 1-610): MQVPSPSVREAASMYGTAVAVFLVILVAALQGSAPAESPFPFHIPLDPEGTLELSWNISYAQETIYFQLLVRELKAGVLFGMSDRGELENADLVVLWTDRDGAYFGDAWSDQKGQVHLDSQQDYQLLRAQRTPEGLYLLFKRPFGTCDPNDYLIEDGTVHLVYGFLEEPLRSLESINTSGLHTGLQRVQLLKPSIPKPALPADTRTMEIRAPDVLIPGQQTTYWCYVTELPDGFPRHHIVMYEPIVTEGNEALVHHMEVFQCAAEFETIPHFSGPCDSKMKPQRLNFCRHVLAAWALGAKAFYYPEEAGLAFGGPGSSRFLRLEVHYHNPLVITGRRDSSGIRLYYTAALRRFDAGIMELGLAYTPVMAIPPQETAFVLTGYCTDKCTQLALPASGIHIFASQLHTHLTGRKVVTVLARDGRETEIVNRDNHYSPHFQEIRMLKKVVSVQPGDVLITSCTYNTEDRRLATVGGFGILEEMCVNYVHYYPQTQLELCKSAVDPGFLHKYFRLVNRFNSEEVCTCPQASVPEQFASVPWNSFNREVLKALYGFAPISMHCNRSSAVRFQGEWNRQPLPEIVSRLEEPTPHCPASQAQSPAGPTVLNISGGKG
Description: Listed in Table I are the compounds of the invention that were tested for in vitro DBH inhibition by a standard procedure for assaying conversion of tyramine to octopamine in the presence of DBH. J. J. Pisano, et al., Biochim. Biophys. Acta, 43, 566-568 (1960). Octopamine was assayed following sodium periodate oxidation to p-hydroxybenzaldehyde by measuring spectrophotometric absorbance at 330 nm. In Table I, inhibition is given in molar concentration of compound at which DBH activity was halved (IC50).

[2] = target: T1, dopamine-β-hydroxylase (DBH); conditions: cited from earlier work; for DBH inhibition (in words): literature reports
[3] = Ehrreich et al.; cited from earlier work
[4] = Teresawa et al. and references cited therein; cited from earlier work
[5] = mean arterial blood pressure in spontaneously hypertensive rats; assay type: in vivo; conditions: 50 mg/kg intraperitoneally
Description: Further, spontaneously hypertensive rats were treated with a suspension or solution of N-(2-aminoethyl)-1-(3,5-difluorobenzyl)-2-mercaptoimidazole-5-carboxamide,formate at a dose of 50 mg/kg intraperitoneally, and mean arterial blood pressure was monitored for 260 minutes using indwelling cannulae in the tail arteries.

O=C(O)c1cnc(S)n1Cc1cc(F)cc(F)c1 [1-(3,5-Difluorobenzyl)-2-mercaptoimidazole-5-carboxylic acid]
IC50 [1]: 100 µM

O=C(O)c1ccc(CCC(Br)CBr)cn1 (stereo not drawn) [5-(3,4-dibromobutyl)picolinic acid]
DBH inhibition (in words) [2]: DBH inhibitors

O=C(O)c1ccc(CCCCCl)cn1 [5-(4-chlorobutyl) picolinic acid]
DBH inhibition (in words) [2]: inhibit DBH

CN(C)C(=S)SCc1ccc(C(=O)O)nc1 [5-(dimethyldithiocarbamoylmethyl)picolinic acid]
DBH inhibition (in words) [2]: DBH inhibitors

NOCc1ccccc1 [Benzyloxyamine, benzyloxyamine]
mode of DBH inhibition [2]: competitive inhibitors

CCCCc1ccc(C(N)=O)nc1 [Bupicomide, 5-(n-butyl)picolinamine]
DBH inhibition (in words) [2]: DBH inhibitor | antihypertensive activity [3]: has antihypertensive activity

CCCCc1ccc(C(=O)O)nc1 [Fusaric acid]
toxicity [4]: hepatotoxic

NCCNC(=O)c1cnc(S)n1Cc1cc(F)cc(F)c1 [N-(2-Aminoethyl)-1-(3,5-difluorobenzyl)-2-mercaptoimidazole-5-carboxamide,formate]
IC50 [1]: 0.34 µM | mean arterial blood pressure reduction compared to vehicle-treated controls ([5]; spontaneously hypertensive rats): significant blood pressure reductions | blood pressure when monitoring was terminated ([5]; monitored for 260 minutes): blood pressure remained decreased

NNCc1ccccc1 [benzylhydrazine]
mode of DBH inhibition [2]: competitive inhibitors
